Measured values from patent US20250223259A1, “PROTEASE INHIBITORS FOR TREATING OR PREVENTING CORONAVIRUS INFECTION” (Merck Sharp & Dohme LLC, priority 2022, published 2025).

target: SARS2 coronavirus 3CL protease (Severe acute respiratory syndrome coronavirus 2 (2019-nCoV) (SARS-CoV-2), UniProt P0DTD1); assay: SARS2 Coronavirus 3CL Protease Assay (FRET); assay type: biochemical; settings: SARS2 3CLPro FRET assay; 5 nM enzyme, 30 min pre-incubation with compound, 15 uM peptide substrate, 4 h room temperature

In order of falling IC50:
1. COC(=O)N[C@H](C(=O)N1CC(C2CCOC2)C[C@H]1C(=O)N[C@@H](CCC(C)(F)F)C(=O)C(=O)NC1CC1)C(C)(C)C (single isomer, unassigned) [Example 54, Methyl ((S)-1-((2S,4(R or S))-2-(((S)-1-(cyclopropylamino)-6,6-difluoro-1,2-dioxoheptan-3-yl)carbamoyl)-4-((R or S)-tetrahydrofuran-3-yl)pyrrolidin-1-yl)-3,3-dimethyl-1-oxobutan-2-yl)carbamate]  201 nM
2. COC(=O)N[C@H](C(=O)N1C(C(=O)N[C@@H](CCC(C)(F)F)C(=O)C(=O)NC2CC2)[C@H]2CC[C@@H]1C2)C(C)(C)C (single isomer, unassigned) [Example 77, Methyl ((S)-1-((1R, 3(R or S),4S)-3-(((S)-1-(cyclopropylamino)-6,6-difluoro-1,2-dioxoheptan-3-yl)carbamoyl)-2-azabicyclo[2.2.1]heptan-2-yl)-3,3-dimethyl-1-oxobutan-2-yl)carbamate]  133 nM
3. CNC(=O)N[C@H](C(=O)N1CC2(CCCCC2)C[C@H]1C(=O)N[C@@H](CCC(C)(F)F)C(=O)C(=O)NC1CC1)C(C)(C)C [Example 75, (S)-N-((S)-1-(cyclopropylamino)-6,6-difluoro-1,2-dioxoheptan-3-yl)-2-((S)-3,3-dimethyl-2-(3-methylureido)butanoyl)-2-azaspiro[4.5]decane-3-carboxamide]  82 nM
4. COC(=O)N[C@H](C(=O)N1CCC(C)(C)C1C(=O)N[C@@H](CCC(C)(F)F)C(=O)C(=O)NC1CC1)C(C)(C)C (single isomer, unassigned) [Example 73, Methyl ((S)-1-((R or S)-2-(((S)-1-(cyclopropylamino)-6,6-difluoro-1,2-dioxoheptan-3-yl)carbamoyl)-3,3-dimethylpyrrolidin-1-yl)-3,3-dimethyl-1-oxobutan-2-yl)carbamate]  60 nM
5. CC(C)OC(=O)N[C@H](C(=O)N1CC2(CCCCC2)C[C@H]1C(=O)N[C@@H](CCC(C)(F)F)C(=O)C(=O)NC1CC1)C(C)(C)C [Example 4, Isopropyl ((S)-1-((S)-3-(((S)-1-(cyclopropylamino)-6,6-difluoro-1,2-dioxoheptan-3-yl)carbamoyl)-2-azaspiro[4.5]decan-2-yl)-3,3-dimethyl-1-oxobutan-2-yl)carbamate]  60 nM
6. COC(=O)N[C@H](C(=O)N1C[C@H](OC(F)(F)F)C[C@H]1C(=O)N[C@@H](CCC(C)(F)F)C(=O)C(=O)NC1CC1)C(C)(C)C [Example 70, Methyl ((S)-1-((2S,4R)-2-(((S)-1-(cyclopropylamino)-6,6-difluoro-1,2-dioxoheptan-3-yl)carbamoyl)-4-(trifluoromethoxy)pyrrolidin-1-yl)-3,3-dimethyl-1-oxobutan-2-yl)carbamate]  36 nM
7. COC(=O)N[C@H](C(=O)N1CCC(F)(F)CC1C(=O)N[C@@H](CCC(C)(F)F)C(=O)C(=O)NC1CC1)C(C)(C)C (single isomer, unassigned) [Example 45, Methyl ((S)-1-(R or S)-(2-(((S)-1-(cyclopropylamino)-6,6-difluoro-1,2-dioxoheptan-3-yl)carbamoyl)-4,4-difluoropiperidin-1-yl)-3,3-dimethyl-1-oxobutan-2-yl)carbamate]  34 nM
8. CNC(=O)C(=O)[C@H](CCC(C)(F)F)NC(=O)[C@@H]1[C@H]2CCC[C@H]2CN1C(=O)[C@@H](NC(=O)OC)C12CC(C(F)(F)F)(C1)C2 [Example 114, methyl ((S)-2-((1S,3aR,6aS)-1-(((S)-6,6-difluoro-1-(methylamino)-1,2-dioxoheptan-3-yl)carbamoyl)hexahydrocyclopenta[c]pyrrol-2(1H)-yl)-2-oxo-1-(3-(trifluoromethyl)bicyclo[1.1 1]pentan-1-yl)ethyl)carbamate]  27 nM
9. COC(=O)N[C@H](C(=O)N1CC2(CCCC2)C[C@H]1C(=O)N[C@@H](CCC(C)(F)F)C(=O)C(=O)NC1CC1)C(C)(C)C [Example 10, Methyl ((S)-1-((S)-3-(((S)-1-(cyclopropylamino)-6,6-difluoro-1,2-dioxoheptan-3-yl)carbamoyl)-2-azaspiro[4.4]nonan-2-yl)-3,3-dimethyl-1-oxobutan-2-yl)carbamate]  26 nM
10. COC(=O)N[C@H](C(=O)N1C[C@@H]2CCCC[C@@H]2C[C@H]1C(=O)N[C@@H](CCC(C)(F)F)C(=O)C(=O)NC1CC1)C(C)(C)C [Example 26, Methyl ((S)-1-((3S,4aR,8aR)-3-(((S)-1-(cyclopropylamino)-6,6-difluoro-1,2-dioxoheptan-3-yl)carbamoyl)octahydroiso-quinolin-2(1H)-yl)-3,3-dimethyl-1-oxobutan-2-yl)carbamate]  22 nM
11. COC(=O)N[C@H](C(=O)N1C[C@H]2CCCC[C@H]2C[C@H]1C(=O)N[C@@H](CCC(C)(F)F)C(=O)C(=O)NC1CC1)C(C)(C)C [Example 80, methyl ((S)-1-((3S,4aS,8aS)-3-(((S)-1-(cyclopropylamino)-6,6-difluoro-1,2-dioxoheptan-3-yl)carbamoyl)octahydroisoquinolin-2(1H)-yl)-3,3-dimethyl-1-oxobutan-2-yl)carbamate]  12 nM
12. CNC(=O)C(=O)[C@H](CCC(C)(F)F)NC(=O)[C@@H]1[C@@H]2[C@H](CN1C(=O)[C@@H](NC(=O)OC)C(C)(C)C)C21CCOCC1 [Example 40, Methyl ((S)-1-((1R,2S,5S)-2-(((S)-6,6-difluoro-1-(methylamino)-1,2-dioxoheptan-3-yl)carbamoyl)tetrahydro-3-azaspiro[bicyclo[3.1.0]hexane-6,4′-pyran]-3-yl)-3,3-dimethyl-1-oxobutan-2-yl)carbamate]  12 nM
13. COC(=O)N[C@H](C(=O)N1CCC(C)(C)CC1C(=O)N[C@@H](CCC(C)(F)F)C(=O)C(=O)NC1CC1)C(C)(C)C (single isomer, unassigned) [Example 37, Methyl ((S)-1-((R or S)-(2-(((S)-1-(cyclopropylamino)-6,6-difluoro-1,2-dioxoheptan-3-yl)carbamoyl)-4,4-dimethylpiperidin-1-yl)-3,3-dimethyl-1-oxobutan-2-yl)carbamate]  9.2 nM
14. COC(=O)N[C@H](C(=O)N1CCC2(CC2)C[C@H]1C(=O)N[C@@H](CCC(C)(F)F)C(=O)C(N)=O)C(C)(C)C [Example 20, Methyl ((S)-1-((S)-5-(((S)-1-amino-6,6-difluoro-1,2-dioxoheptan-3-yl)carbamoyl)-6-azaspiro[2.5]octan-6-yl)-3,3-dimethyl-1-oxobutan-2-yl)carbamate]  7.4 nM
15. CNC(=O)C(=O)[C@H](CCC(C)(F)F)NC(=O)[C@@H]1[C@H]2CCC[C@H]2CN1C(=O)[C@H](CC(F)(F)F)NC(=O)OC [Example 87, methyl ((S)-1-((1S,3aR,6aS)-1-(((S)-6,6-difluoro-1-(methylamino)-1,2-dioxoheptan-3-yl)carbamoyl)hexahydrocyclopenta[c]pyrrol-2(1H)-yl)-4,4,4-trifluoro-1-oxobutan-2-yl)carbamate]  7 nM
16. CNC(=O)C(=O)[C@H](CCC(C)(F)F)NC(=O)C1C2CC(C)(C)C2CN1C(=O)[C@@H](NC(=O)OC)C(C)(C)C (single isomer, unassigned) [Example 95, methyl ((S)-1-((1S,2S,5S or 1R,2R,5R)-2-(((S)-6,6-difluoro-1-(methylamino)-1,2-dioxoheptan-3-yl)carbamoyl)-6,6-dimethyl-3-azabicyclo[3.2.0]heptan-3-yl)-3,3-dimethyl-1-oxobutan-2-yl)carbamate]  5 nM
